Experimental data as given in patent US20240376084A1, “INHIBITORS OF ALPHA-HEMOLYSIN OF STAPHYLOCOCCUS AUREUS” (Helmholtz-Zentrum Fur Infektionsforschung GmbH, priority 2021, published 2024).

Experiments:
[1] = biological target: hemolysin alpha from Staphylococcus aureus (Staphylococcus aureus, UniProt P09616); test: cell-based
[2] = biological target: S. aureus Alpha hemolysin (Staphylococcus aureus, UniProt P09616); test: cell-based
Chain of S. aureus Alpha hemolysin (P09616 27-319 limits assumed): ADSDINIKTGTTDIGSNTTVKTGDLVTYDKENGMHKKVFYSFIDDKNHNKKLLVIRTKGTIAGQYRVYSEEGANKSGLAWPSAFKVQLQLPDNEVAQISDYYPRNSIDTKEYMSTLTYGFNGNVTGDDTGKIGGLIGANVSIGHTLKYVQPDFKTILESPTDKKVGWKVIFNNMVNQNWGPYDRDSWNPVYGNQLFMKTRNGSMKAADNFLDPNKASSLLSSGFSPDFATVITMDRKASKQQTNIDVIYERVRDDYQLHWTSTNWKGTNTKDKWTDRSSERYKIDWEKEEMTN

Chain of hemolysin alpha from Staphylococcus aureus (P09616 27-319 limits assumed): as above

Cc1cc2[nH]c(=O)c(=O)[nH]c2cc1S(=O)(=O)Nc1ccc(C2=CCCCC2)c(Br)c1 [Compound 299, N-[3-bromo-4-(cyclohexen-1-yl)phenyl]-7-methyl-2,3-dioxo-1,4-dihydroquinoxaline-6-sulfonamide]
EC50 [1]: 30 to 100 nM | EC50 ([2]; A549-LDH Assay activity): 30 to 100 nM

Cc1cc2[nH]c(=O)c(=O)[nH]c2cc1S(=O)(=O)Nc1ccc(-c2ccc3c(c2)N(C)C(=O)CO3)c(Cl)c1 [Compound 356, N-[3-chloro-4-(4-methyl-3-oxo-1,4-benzoxazin-6-yl)phenyl]-7-methyl-2,3-dioxo-1,4-dihydroquinoxaline-6-sulfonamide]
EC50 [1]: < 30 nM | EC50 ([2]; A549-LDH Assay activity): 30 to 100 nM

Cc1cc2[nH]c(=O)c(=O)[nH]c2cc1S(=O)(=O)Nc1ccc(-c2cc(F)cc(C(N)=O)c2)c(C(F)(F)F)c1 [Compound 363, 3-fluoro-5-[4-[(7-methyl-2,3-dioxo-1,4-dihydroquinoxalin-6-yl)sulfonylamino]-2-(trifluoromethyl)phenyl]benzamide]
EC50 [1]: 30 to 100 nM | EC50 ([2]; A549-LDH Assay activity): 30 to 100 nM

Cc1ccc(-c2ccc(NS(=O)(=O)c3cc4[nH]c(=O)c(=O)[nH]c4cc3C)cc2Cl)o1 [Compound 69, N-(3-chloro-4-(5-methylfuran-2-yl)phenyl)-7-methyl-2,3-dioxo-1,2,3,4-tetrahydroquinoxaline-6-sulfonamide]
IC50 [1]: 30 to 100 nM | EC50 ([2]; A549-LDH Assay activity): 1000 to 6000 nM

COc1cc(OC)cc(-c2ccc(NS(=O)(=O)c3cc4[nH]c(=O)c(=O)[nH]c4cc3C)cc2Cl)c1 [Compound 258, N-[3-chloro-4-(3,5-dimethoxyphenyl)phenyl]-7-methyl-2,3-dioxo-1,4-dihydroquinoxaline-6-sulfonamide]
EC50 [1]: 100 to 1000 nM | EC50 ([2]; A549-LDH Assay activity): 100 to 1000 nM

Cc1cc2[nH]c(=O)c(=O)[nH]c2cc1S(=O)(=O)Nc1ccc(-c2ccc(OC(F)(F)F)cc2)c(Cl)c1 [Compound 277, N-[3-chloro-4-[4-(trifluoromethoxy)phenyl]phenyl]-7-methyl-2,3-dioxo-1,4-dihydroquinoxaline-6-sulfonamide]
EC50 [1]: 100 to 1000 nM | EC50 ([2]; A549-LDH Assay activity): 100 to 1000 nM

Cc1cc2[nH]c(=O)c(=O)[nH]c2cc1S(=O)(=O)Nc1ccc(-c2ccccc2C(=O)O)cc1 [Compound 182, 4′-((7-methyl-2,3-dioxo-1,2,3,4-tetrahydroquinoxaline)-6-sulfonamido)-[1,1′-biphenyl]-2-carboxylic acid]
IC50 [1]: 1000 to 3500 nM | EC50 ([2]; A549-LDH Assay activity): 1000 to 6000 nM

O=c1[nH]c2cc(F)c(S(=O)(=O)Nc3ccc(C4CC4)cc3)cc2[nH]c1=O [Compound 68, N-(4-cyclopropylphenyl)-7-fluoro-2,3-dioxo-1,2,3,4-tetrahydroquinoxaline-6-sulfonamide]
IC50 [1]: 30 to 100 nM | EC50 ([2]; A549-LDH Assay activity): 100 to 1000 nM

Cc1cc(NS(=O)(=O)c2cc3[nH]c(=O)c(=O)[nH]c3cc2C)ccc1Br [Compound 171, N-(4-bromo-3-methylphenyl)-7-methyl-2,3-dioxo-1,2,3,4-tetrahydroquinoxaline-6-sulfonamide]
IC50 [1]: 100 to 1000 nM | EC50 ([2]; A549-LDH Assay activity): 30 to 100 nM

C#Cc1ccc(NS(=O)(=O)c2cc3[nH]c(=O)c(=O)[nH]c3cc2C)cc1 [Compound 130, N-(4-ethynylphenyl)-7-methyl-2,3-dioxo-1,2,3,4-tetrahydroquinoxaline-6-sulfonamide]
IC50 [1]: 100 to 1000 nM | EC50 ([2]; A549-LDH Assay activity): 100 to 1000 nM

Cc1cc2[nH]c(=O)c(=O)[nH]c2cc1S(=O)(=O)Nc1ccc(OC(F)(F)F)cc1 [Compound 28, 7-methyl-2,3-dioxo-N-(4-(trifluoromethoxy)phenyl)-1,2,3,4-tetrahydroquinoxaline-6-sulfonamide]
IC50 [1]: < 30 nM | EC50 ([2]; A549-LDH Assay activity): < 30 nM

Cc1cc(NS(=O)(=O)c2cc3[nH]c(=O)c(=O)[nH]c3cc2C)ccc1OC(F)(F)F [Compound 323, 7-methyl-N-[3-methyl-4-(trifluoromethoxy)phenyl]-2,3-dioxo-1,4-dihydroquinoxaline-6-sulfonamide]
EC50 [1]: 30 to 100 nM | EC50 ([2]; A549-LDH Assay activity): < 30 nM

Cc1cc2[nH]c(=O)c(=O)[nH]c2cc1S(=O)(=O)Nc1ccc(-c2ccc3c(c2)N(C)CCO3)c(Cl)c1 [Compound 354, N-[3-chloro-4-(4-methyl-2,3-dihydro-1,4-benzoxazin-6-yl)phenyl]-7-methyl-2,3-dioxo-1,4-dihydroquinoxaline-6-sulfonamide]
EC50 [1]: 30 to 100 nM | EC50 ([2]; A549-LDH Assay activity): 100 to 1000 nM

Cc1cc2[nH]c(=O)c(=O)[nH]c2cc1S(=O)(=O)Nc1ccc(OC(F)(F)F)cc1 [drawing 469 (R^2 = CH3)]
EC50 [1]: 37 nM | EC50 ([2]; LDH Assay EC50): 14 nM

Cc1cc2[nH]c(=O)c(=O)[nH]c2cc1S(=O)(=O)Nc1ccc(-c2cccc(OCCN(C)C)c2)c(Cl)c1 [Compound 331, N-[3-chloro-4-[3-[2-(dimethylamino)ethoxy]phenyl]phenyl]-7-methyl-2,3-dioxo-1,4-dihydroquinoxaline-6-sulfonamide]
EC50 [1]: 100 to 1000 nM | EC50 ([2]; A549-LDH Assay activity): 100 to 1000 nM

CCCc1ccc(NS(=O)(=O)c2cc3[nH]c(=O)c(=O)[nH]c3cc2Br)cc1 [Compound 41, 7-bromo-2,3-dioxo-N-(4-propylphenyl)-1,2,3,4-tetrahydroquinoxaline-6-sulfonamide]
IC50 [1]: 30 to 100 nM | EC50 ([2]; A549-LDH Assay activity): 30 to 100 nM

Cc1cc2[nH]c(=O)c(=O)[nH]c2cc1S(=O)(=O)Nc1ccc(N2CCCC2)cc1 [Compound 137, 7-methyl-2,3-dioxo-N-(4-(pyrrolidin-1-yl)phenyl)-1,2,3,4-tetrahydroquinoxaline-6-sulfonamide]
IC50 [1]: 100 to 1000 nM | EC50 ([2]; A549-LDH Assay activity): 30 to 100 nM

Cc1cc2[nH]c(=O)c(=O)[nH]c2cc1S(=O)(=O)Nc1ccc(OC(F)(F)F)c(Br)c1 [Compound 322, N-[3-bromo-4-(trifluoromethoxy)phenyl]-7-methyl-2,3-dioxo-1,4-dihydroquinoxaline-6-sulfonamide]
EC50 [1]: 30 to 100 nM | EC50 ([2]; A549-LDH Assay activity): 30 to 100 nM

Cc1cc2[nH]c(=O)c(=O)[nH]c2cc1S(=O)(=O)Nc1ccc(-c2ccc3nn[nH]c3c2)c(Cl)c1 [Compound 256, N-[4-(1H-benzotriazol-5-yl)-3-chloro-phenyl]-7-methyl-2,3-dioxo-1,4-dihydroquinoxaline-6-sulfonamide]
EC50 [1]: < 30 nM | EC50 ([2]; A549-LDH Assay activity): 30 to 100 nM

O=c1[nH]c2cc(Cl)c(S(=O)(=O)Nc3ccc(C4CC4)cc3)cc2[nH]c1=O [Compound 85, 7-chloro-N-(4-cyclopropylphenyl)-2,3-dioxo-1,2,3,4-tetrahydroquinoxaline-6-sulfonamide]
IC50 [1]: 100 to 1000 nM | EC50 ([2]; A549-LDH Assay activity): 30 to 100 nM

Cc1nc2cc(-c3ncc(NS(=O)(=O)c4cc5[nH]c(=O)c(=O)[nH]c5cc4C)cc3Cl)ccc2o1 [Compound 375, N-[5-chloro-6-(2-methyl-1,3-benzoxazol-5-yl)-3-pyridyl]-7-methyl-2,3-dioxo-1,4-dihydroquinoxaline-6-sulfonamide]
EC50 [1]: 30 to 100 nM | EC50 ([2]; A549-LDH Assay activity): 30 to 100 nM

Cc1cc2[nH]c(=O)c(=O)[nH]c2cc1S(=O)(=O)Nc1ccc(-c2ccccc2C(F)(F)F)c(Cl)c1 [Compound 139, N-(2-chloro-2′-(trifluoromethyl)-[1,1′-biphenyl]-4-yl)-7-methyl-2,3-dioxo-1,2,3,4-tetrahydroquinoxaline-6-sulfonamide]
IC50 [1]: 100 to 1000 nM | EC50 ([2]; A549-LDH Assay activity): 1000 to 6000 nM

Cc1cc2[nH]c(=O)c(=O)[nH]c2cc1S(=O)(=O)Nc1ccc(-c2cccc(N3CCN(C)CC3)c2)c(Cl)c1 [Compound 330, N-[3-chloro-4-[3-(4-methylpiperazin-1-yl)phenyl]phenyl]-7-methyl-2,3-dioxo-1,4-dihydroquinoxaline-6-sulfonamide]
EC50 [1]: 100 to 1000 nM | EC50 ([2]; A549-LDH Assay activity): 100 to 1000 nM
